According to paper PMC6506541, “A Bio-inspired Hypoxia Sensor using HIF1a-Oxygen-Dependent Degradation Domain” (Scientific Reports, 2019):

Experiments:
Type in all cases: cell-based, Human
HA-tagged ubiquitin = assay: Immunoprecipitation of HA-tagged ubiquitinated sensor; details: MDA-MB 231 cells transfected with pcDNA3-Ub-HA; 5 h with sensor; anti-HA immunoprecipitation; IVIS fluorescence
Method: MDA-MB 231 cells were seeded at a density of 2·10^5 cells per well in 6-multiwell plates twenty-four hours prior transfection. Each well was transfected with 2 μg of either pcDNA3-Ub-HA or empty vector pcDNA3 (Invitrogen) using Superfect (Qiagen) as transfection reagent. Twenty-four hours upon transfection culture medium was removed, cells were washed carefully with phosphate buffered saline (PBS; Sigma-Aldrich) and fresh culture medium containing the peptidic sensor 1 was added onto the cells. PBS was used as mock treatment. Five hours upon treatment with the sensor, cells were lysed in native immunoprecipitation buffer, 20 mM Tris·HCl pH 8, 137 mM NaCl,10% glycerol,1% Nonidet P-40 (NP-40), 2 mM EDTA, containing the protease inhibitors sodium orthovanadate (1 mM), PMSF (2 mM) and aprotinin (1 μg/mL) (Sigma-Aldrich). Each immunoprecipitation contained 600 μg of whole protein extract and were incubated overnight with 5 μg of anti-hemagglutinin HA.11 (Clone 16B12) antibody (Abcam) at 4 °C. Equal amounts of rabbit immunoglobulins (Sigma-Aldrich) were used as control. HA-tagged ubiquitins were immunoprecipitated using Protein G-coupled agarose (Santa Cruz), subsequently washed with immunoprecipitation buffer and eluted under native conditions. Fluorescence images were taken using an IVIS Spectrum system (Perkin-Elmer).

proteasome = assay: Sensor degradation under proteasome inhibitor MG-132; details: MDA-MB 231 cells; MG-132 20 μM or 40 μM, 6 h, after pre-treatment with probe
Method: (§1) Human breast cancer cells MDA-MB 231 were maintained at 37 °C and 5% CO2 in RPMI-1640 (Sigma–Aldrich), supplemented with 10% fetal bovine serum (Fisher Scientific). Cells were seeded at a density of 2·10^5 cells per well in 6-multiwell plates 24 h prior treatment. For hypoxia induction, they were treated with either CoCl2 (Sigma–Aldrich) at a final concentration of 500 μM, or L-Mimosine (Sigma–Aldrich) at a final concentration of 800 μM. Treatment with each peptidic sensor (500 ng/mL) was carried out in the presence of the aforementioned inhibitors. After three hours of incubation, supernatants containing the probes and either CoCl2 or L-Mimosine were aspirated, cells were washed once with PBS 1X and fresh medium, containing again either CoCl2 or L-Mimosine, was added to the cells for an extended incubation of three hours. Treatment with proteasome inhibitor MG-132 (Sigma-Aldrich) was carried out for 6 hours at final concentrations of either 20 μM or 40 μM, upon pre-treatment of the cells with the probes, as described previously. Fluorescent probes internalization was quantified using ImageJ (NIH). Quantified fluorescence was expressed as values of corrected total cell fluorescence (CTCF), which was calculated using the formula CTCF = integrated density – (area of selected cell × mean fluorescence of background readings)[44].

MDA-MB 231 cells = assay: Sensor stabilization by hypoxia-mimetic agents, fluorescence microscopy; details: sensor 500 ng/mL, CoCl2 500 μM or L-Mimosine 800 μM vs vehicle, 3 h incubation, wash, further 3 h
Method: as §1

## LDLEMLAPYIPMDDDFQL [compound 1, 5(6)-ROX-labelled HIF-1α ODD domain peptide (Leu557-Leu574) linked to octa-arginine by O2Oc PEG linkers]
HA-tagged ubiquitin
  ubiquitination of sensor (enrichment by HA immunoprecipitation): degradation of the sensor is ubiquitin proteasome-regulated
proteasome
  effect of proteasome inhibitor MG-132 on degradation of sensor fluorescent signal: dose-dependent effect on proteasome degradation of fluorescent signal
MDA-MB 231 cells
  stabilization of sensor fluorescence (inhibition of sensor degradation) by hypoxia mimetics: stabilized in the presence of both molecules that mimic hypoxia
